Test [1] in a line: Inhibition of PI3K (unknown origin). Also noted: species or system Homo sapiens.
The target in test [2] is Histone-lysine N-methyltransferase EZH2 (Homo sapiens, UniProt Q15910). The test can be described thus: Inhibition of EZH2 (unknown origin).
Histone-lysine N-methyltransferase EZH2, sequence (Q15910 whole entry): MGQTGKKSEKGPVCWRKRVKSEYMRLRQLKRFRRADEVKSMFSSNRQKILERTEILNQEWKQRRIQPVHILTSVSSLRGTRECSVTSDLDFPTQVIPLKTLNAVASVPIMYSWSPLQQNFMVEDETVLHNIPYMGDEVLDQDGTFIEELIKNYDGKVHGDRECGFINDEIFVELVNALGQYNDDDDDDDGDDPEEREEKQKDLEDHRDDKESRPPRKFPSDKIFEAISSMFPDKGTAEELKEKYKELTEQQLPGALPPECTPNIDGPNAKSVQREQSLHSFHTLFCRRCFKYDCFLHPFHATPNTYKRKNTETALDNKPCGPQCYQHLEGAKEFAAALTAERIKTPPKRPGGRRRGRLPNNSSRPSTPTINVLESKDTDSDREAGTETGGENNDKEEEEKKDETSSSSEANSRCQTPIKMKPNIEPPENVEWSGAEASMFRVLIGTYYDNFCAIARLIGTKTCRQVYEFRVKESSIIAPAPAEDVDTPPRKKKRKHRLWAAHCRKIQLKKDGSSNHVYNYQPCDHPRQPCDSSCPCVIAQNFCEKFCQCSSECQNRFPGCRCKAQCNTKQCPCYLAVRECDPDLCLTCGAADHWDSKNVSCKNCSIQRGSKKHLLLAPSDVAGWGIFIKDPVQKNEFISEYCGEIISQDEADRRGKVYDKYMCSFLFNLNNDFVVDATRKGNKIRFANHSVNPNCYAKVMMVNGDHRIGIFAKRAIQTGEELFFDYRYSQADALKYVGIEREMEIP

Take `CC(C)Oc1ccc(-c2nn([C@@H](C)c3oc4ccc(F)cc4c(=O)c3-c3cccc(F)c3)c3ncnc(N)c23)cc1F` [UMBRALISIB]: in test [1], the Kd (usually a measure of binding affinity in units of concentration) worked out at 6.2 nM.
Consider `Cc1cc(C)c(CNC(=O)c2cc(C)n(C3CCCCC3)c2C)c(=O)[nH]1`, for which, in test [2], the response was half-maximal at 3400 nM (EC50).

For the origin of these results see ChEMBL document CHEMBL5230141, “Focused Libraries for Epigenetic Drug Discovery: The Importance of Isosteres” (J Med Chem, 2021).
